Like-named read-outs stand apart in the source and are kept apart here.
What was measured:
dog CAIX = assay: Radioligand binding assay, 111In-labeled compounds, CHO-VGT cells with dog CAIX; settings: 111In-labeled compound, 8 h at 37°C
Description: (§1) In order to assess the affinity of ^111In-labeled compounds to CAIX of different species, a radioligand binding assay was established.
(§2) CHO-VGT cells were transfected with the human, dog, and mouse CAIX (InSCREENex GmbH) and cultured in Ham's F-12 medium (Sigma-Aldrich #N4888) supplemented with 10% fetal bovine serum (FCS), 2 mM L-glutamine, 100 U/mL Penicillin, and 0.1 mg/mL streptomycin. Cells were detached with Accutase (Biolegend #423201) and counted using a particle counter (CASY Model TT; Scharfe Systems, Germany). Cell concentrations were adjusted to 3×10^5 mL^−1, and 1.000 μL of the suspension per well were dispensed into flat-clear-bottom 24 well plates.
(§3) Approximately 24 hours after re-seeding, the medium was aspirated and the cells were washed once with 1000 μL assay medium (Ham's medium without additives). To determine total binding, 700 μL of assay medium and 100 μL of the radioligand dilutions were added to the wells in triplicates. To determine non-specific binding, 600 μL of binding medium, 100 μL of the radioligand dilutions and 100 μL of a blocking solution containing 8 μM non-labeled compound were added to the wells in triplicates. At the end of incubation time (8 h at 37° C.), cells were washed and subsequently harvested in 300 μL RIPA buffer (Thermo Scientific #89901) containing Protease Inhibitor Cocktail Set I (Calbiochem #539131). Radioactivity of the cell lysate of each well was counted using a gamma counter (1470 Wizard, PerkinElmer, USA). An aliquot of each radioligand dilution was included in the gamma counter measurements to allow for determination of their actual concentrations via their known specific activity.

human CAIX = human CAIX (Homo sapiens, UniProt Q16790); assay: Radioligand binding assay, 111In-labeled compounds, CHO-VGT cells with human CAIX; design: host or cells: CHO-VGT / CHO cells
Description: as §1, §2, §3

CAXII (hCAXII-bio) = molecular target: T1, CAXII (hCAXII-bio) (Homo sapiens, UniProt O43570); assay: SPR selectivity assay with biotinylated CAXII; assay type: binding
T1 construct: purchased SinoBliological (Sino Biological) 10617-H08H
Description: (§4) In order to test selectivity of CAIX-binding peptides toward CAIV (SinoBliological, Cat #10472-1H081H), CAXII (SinoBliological, Cat #10617-H08H or CAXIV (SinoBliological, Cat #10458-H08H), SPR assays were performed analog to the assay described above but with a different target capture procedure. For immobilization, the carbonic anhydrases were biotinylated and capture on the SPR chip using the Biotin CAPture Kit (cytiva) according to the manufacturer instructions using HBSTE, 0.1% as Running Buffer.
(§5) Table 13 describes the protocol steps for biotinylated target capturing and assessment of the binding kinetics.

CAXIV (hCAXIV-bio) = molecular target: T2, CAXIV (hCAXIV-bio) (Homo sapiens, UniProt Q9ULX7); assay: SPR selectivity assay with biotinylated CAXIV; assay type: binding
T2 construct: purchased SinoBliological (Sino Biological) 10458-H08H
Description: as §4, §5

[1] = molecular target: T3, CAIX-expressing human HT-29 colorectal cancer cells (Homo sapiens, UniProt Q16790); assay: FACS binding assay (IC50 determination, competition with tracer 3BP-2776 or 3BP-4149)
T3 construct: CAIX-expressing human HT-29 colorectal cancer cells; host or cells: HT-29 human colorectal cancer cells
Method in brief: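 HT-29 cells in FACS buffer (PBS, 1% FCS) at 500.000 cells/ml were exposed to compounds competing with a labelled tracer, with biotinylated compounds detected by 1 μg/mL APC-streptavidin for 30 min on ice. APC/Cy5 median fluorescence was read by flow cytometry and IC50 derived by 4PL fit.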

CAIV (hCAIV-bio) = molecular target: T4, CAIV (hCAIV-bio) (Homo sapiens, UniProt P22748); assay: SPR selectivity assay with biotinylated CAIV; assay type: binding
T4 construct: purchased SinoBliological (Sino Biological) 10472-1H081H
Description: as §4, §5

[2] = molecular target: T5, human carbonic anhydrase IX (hCAIX-Fc) (Homo sapiens, UniProt Q16790); assay: Surface plasmon resonance assay with hCAIX-Fc; assay type: binding; settings: for t1/2 category (activity): SPR dissociation half-life, hCAIX-Fc; for t1/2 category (activity) / Kd: 25° C.; for pKD category (affinity) CAIX / Kd: SPR; for pKD category (affinity) CAIX: hCAIX; for Kd: hCAIX-Fc captured, read-out: pKD category (activity) (converted)
T5 construct: purchased SinoBliological (Sino Biological) 10107-H02H

mouse CAIX = molecular target: T6, mouse CAIX (Mus musculus, UniProt Q8VHB5); assay: Radioligand binding assay, 111In-labeled compounds, CHO-VGT cells with mouse CAIX
T6 construct: host or cells: CHO-VGT / CHO cells
Description: as §1, §2, §3

T6 sequence (Q8VHB5 32-437): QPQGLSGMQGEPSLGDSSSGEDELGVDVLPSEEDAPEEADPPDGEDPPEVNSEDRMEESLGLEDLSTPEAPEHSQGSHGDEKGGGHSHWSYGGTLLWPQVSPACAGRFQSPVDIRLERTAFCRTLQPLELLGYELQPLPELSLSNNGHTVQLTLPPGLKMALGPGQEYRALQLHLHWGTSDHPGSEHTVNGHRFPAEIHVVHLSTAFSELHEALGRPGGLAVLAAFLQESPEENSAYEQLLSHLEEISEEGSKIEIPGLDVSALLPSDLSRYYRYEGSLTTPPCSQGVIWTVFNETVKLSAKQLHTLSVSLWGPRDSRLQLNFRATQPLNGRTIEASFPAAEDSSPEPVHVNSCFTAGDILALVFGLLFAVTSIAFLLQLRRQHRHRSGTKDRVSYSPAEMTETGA
T2 sequence (Q9ULX7 16-337): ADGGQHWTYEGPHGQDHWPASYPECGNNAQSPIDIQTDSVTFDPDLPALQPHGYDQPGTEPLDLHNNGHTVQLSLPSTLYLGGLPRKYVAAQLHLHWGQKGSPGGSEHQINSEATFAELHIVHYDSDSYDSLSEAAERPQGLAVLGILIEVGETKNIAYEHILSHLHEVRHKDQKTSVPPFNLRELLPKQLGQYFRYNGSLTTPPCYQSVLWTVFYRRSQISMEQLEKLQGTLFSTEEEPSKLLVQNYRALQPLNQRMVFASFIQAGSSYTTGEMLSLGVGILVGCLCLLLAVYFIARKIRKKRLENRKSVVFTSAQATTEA
T4 sequence (P22748 19-284): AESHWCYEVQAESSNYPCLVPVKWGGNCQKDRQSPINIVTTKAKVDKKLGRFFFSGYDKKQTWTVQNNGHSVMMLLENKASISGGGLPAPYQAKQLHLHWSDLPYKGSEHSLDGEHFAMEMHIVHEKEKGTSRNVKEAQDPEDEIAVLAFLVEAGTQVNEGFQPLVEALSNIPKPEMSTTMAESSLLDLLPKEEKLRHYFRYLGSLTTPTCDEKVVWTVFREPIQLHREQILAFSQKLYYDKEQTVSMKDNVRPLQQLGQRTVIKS
T1 sequence (O43570 25-354): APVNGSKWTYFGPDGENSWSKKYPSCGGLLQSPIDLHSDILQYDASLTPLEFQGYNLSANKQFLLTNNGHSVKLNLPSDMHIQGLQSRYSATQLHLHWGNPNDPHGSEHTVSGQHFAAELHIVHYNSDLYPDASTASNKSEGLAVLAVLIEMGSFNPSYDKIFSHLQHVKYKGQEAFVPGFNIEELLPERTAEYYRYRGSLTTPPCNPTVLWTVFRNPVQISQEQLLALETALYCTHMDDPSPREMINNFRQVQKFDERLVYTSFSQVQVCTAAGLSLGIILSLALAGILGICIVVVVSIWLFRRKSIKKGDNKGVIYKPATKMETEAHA

Structure (SMILES) | pKD category (activity) (dog CAIX) | Kd (human CAIX) [nM] | Kd (CAXII (hCAXII-bio)) [nM] | Kd (CAXIV (hCAXIV-bio)) [nM] | IC50 [1] [nM] | Kd (CAIV (hCAIV-bio)) [nM] | t1/2 category (activity) [2] | pKD category (affinity) CAIX [2] | Kd [2] [nM] | Kd (mouse CAIX) [nM] | Kd (human CAIX; 111In-labeled compound, Human CAIX, 8 h at 37°C, read-out: pKD category (activity) (converted)) [nM] | Kd (CAXII (hCAXII-bio); SPR, biotinylated CAXII, read-out: pKD category (affinity) CAXII (converted)) [nM] | Kd (CAXIV (hCAXIV-bio); SPR, biotinylated CAXIV, read-out: pKD category (affinity) CAXIV (converted)) [nM] | IC50 ([1]; FACS binding assay, HT-29 cells, competition with tracer 3BP-2776 (10 nM, biotin-labeled), 4° C., 1 hour, read-out: pIC50 category (activity) (converted)) [nM] | Kd (CAIV (hCAIV-bio); SPR, biotinylated CAIV, read-out: pKD category (affinity) CAIV (converted)) [nM] | Kd (mouse CAIX; 111In-labeled compound, Mouse CAIX, 8 h at 37°C, read-out: pKD category (activity) (converted)) [nM]
CC(C)C[C@@H]1NC(=O)[C@H](Cc2cccc(NC(=O)CCCS(N)(=O)=O)c2)NC(=O)[C@H](CC(=O)O)NC(=O)[C@H]2CCCN2C(=O)[C@H](CCC(=O)O)NC(=O)[C@@H](NC(=O)[C@H](CCC(N)=O)NC(=O)CN2CCN(C(=O)CN3CCN(CC(=O)O)CCN(CC(=O)O)CCN(CC(=O)O)CC3)CC2)CSCc2cccc(c2)CSC[C@@H](C(N)=O)NC(=O)[C@H](CO)NC(=O)[C@H](Cc2c[nH]c3ccccc23)NC(=O)[C@H]([C@@H](C)O)NC1=O [3BP-4452, DOTA-PPAc-Gln-[Cys(3MeBn)-Glu-pro-Asp-Af3(Cpsu)-Leu-Thr-Trp-Ser-Cys]-NH2] | A (pKD values >8.0) | < 10 | > 1000 | > 1000 | < 10 | > 1000 | A (t1/2>15.0 minutes) | A (pKD values >8.0) | < 10 | 10 to 79.4 | – | – | – | – | – | –
CC(C)C[C@@H]1NC(=O)[C@H](Cc2ccc(NC(=O)CCS(N)(=O)=O)cc2)NC(=O)[C@H](CC(=O)O)NC(=O)[C@H]2CCCN2C(=O)[C@H](CCC(=O)O)NC(=O)[C@@H](NC(=O)[C@H](CCC(N)=O)NC(=O)CN2CCN(CC(=O)O)CCN(CC(=O)O)CCN(CC(=O)O)CC2)CSCc2cccc(c2)CSC[C@@H](C(N)=O)NC(=O)[C@H](CO)NC(=O)[C@H](Cc2c[nH]c3ccccc23)NC(=O)[C@H]([C@@H](C)O)NC1=O [3BP-4501, DOTA-Gln-[Cys(3MeBn)-Glu-pro-Asp-Aph(SaPr)-Leu-Thr-Trp-Ser-Cys]-NH2] | A (pKD values >8.0) | – | – | – | – | – | A (t1/2>15.0 minutes) | A (pKD values >8.0) | < 10 | – | < 10 | > 1000 | > 1000 | < 10 | > 1000 | 10 to 79.4

Reference: US20250339569A1, “CARBONIC ANHYDRASE IX LIGANDS” (priority 2021, published 2025)
